Drawing on patent US10336762B2 (priority 2017, dated 2019), this text covers IC50 and EC50 for 23 compounds.

The structures appear in SMILES notation.

Test [1] concerns the target IRAK4 enzyme (Homo sapiens (Human), UniProt Q9NWZ3). As to the kind of experiment: biochemical. The format is biochemical. The settings on record: IRAK4 enzyme, TR-FRET, 500 μM ATP. On the technique in general: Time-resolved FRET reads energy transfer from a long-lived donor to a nearby acceptor.
The subject of test [2] is TNFα. Description: cells. The format is cell-based, human. The settings on record: Homo sapiens, Monocyte, LPS-stimulated human monocytes, TNFα content; read-out: EC50 TNF.

Chain of IRAK4 enzyme (Q9NWZ3 whole entry): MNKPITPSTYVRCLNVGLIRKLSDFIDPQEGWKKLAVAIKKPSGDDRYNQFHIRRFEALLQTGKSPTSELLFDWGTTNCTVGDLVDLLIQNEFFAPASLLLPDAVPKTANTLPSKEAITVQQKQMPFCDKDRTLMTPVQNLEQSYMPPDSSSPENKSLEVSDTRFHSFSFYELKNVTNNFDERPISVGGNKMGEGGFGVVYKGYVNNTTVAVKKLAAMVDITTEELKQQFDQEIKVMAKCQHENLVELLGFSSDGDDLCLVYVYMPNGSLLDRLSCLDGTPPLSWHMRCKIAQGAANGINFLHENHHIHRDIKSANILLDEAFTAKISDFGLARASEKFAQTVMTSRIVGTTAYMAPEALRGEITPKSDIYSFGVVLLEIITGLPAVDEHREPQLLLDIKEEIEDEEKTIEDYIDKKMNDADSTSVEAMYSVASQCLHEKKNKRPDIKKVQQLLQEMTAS

By IC50 is commonly meant the concentration that gives 50% inhibition. One may read the EC50 as the concentration that produces a half-maximal response. In test [1], `CC(C)OC(=O)N[C@H]1CC[C@H](Nc2cc(-c3ccc4cc(C#N)cnn34)ncc2C(=O)NC[C@@H](F)C(C)(C)O)CC1` [Example 291, isopropyl ((1R,4r)-4-((2-(3-cyanopyrrolo[1,2-b]pyridazin-7-yl)-5-(((R)-2-fluoro-3-hydroxy-3-methylbutyl)carbamoyl)pyridin-4-yl)amino)cyclohexyl)carbamate] gave a half-maximal inhibitory concentration (IC50) of 2 nM. Moreover, the EC50 in test [2] is 90 nM.

In the case of `CCOC(=O)N[C@H]1CC[C@H](Nc2cc(-c3ccc4cc(C#N)cnn34)ncc2C(=O)NC[C@@H](F)C(C)(C)O)CC1` [Example 292, ethyl ((1R,4r)-4-((2-(3-cyanopyrrolo[1,2-b]pyridazin-7-yl)-5-(((R)-2-fluoro-3-hydroxy-3-methylbutyl)carbamoyl)pyridin-4-yl)amino)cyclohexyl)carbamate], half-maximal inhibition in test [1] (IC50) was put at 1 nM. For the same compound, the 50% effective concentration (EC50) in test [2] is 37 nM.

`COC(=O)N[C@H]1CC[C@H](Nc2cc(-c3ccc4cc(C#N)cnn34)ncc2C(=O)NC[C@@H](F)C(C)(C)OC(C)=O)CC1` [Example 293, (R)-4-(6-(3-cyanopyrrolo[1,2-b]pyridazin-7-yl)-4-(((1r,4R)-4-((methoxycarbonyl)amino)cyclohexyl)amino)nicotinamido)-3-fluoro-2-methylbutan-2-yl acetate]: in test [1], the half-maximal inhibitory concentration (IC50) was found to be 1 nM. In test [2], the concentration giving a half-maximal response (EC50) was 49 nM.

`CC(C)(O)[C@H](F)CNC(=O)c1cnc(-c2ccc3cc(C#N)cnn23)cc1N[C@H]1CC[C@H](NC(=O)C2CCOCC2)CC1` [Example 294, 6-(3-cyanopyrrolo[1,2-b]pyridazin-7-yl)-N-((R)-2-fluoro-3-hydroxy-3-methylbutyl)-4-(((1r,4R)-4-(tetrahydro-2H-pyran-4-carboxamido)cyclohexyl)amino)nicotinamide] returned an IC50 in test [1] of 3 nM. The half-maximal effective concentration (EC50) in test [2] is 735 nM.

For `CC(C)(O)[C@H](F)CNC(=O)c1cnc(-c2ccc3cc(C#N)cnn23)cc1NC12CCC(NC(=O)C(F)(F)F)(CC1)CC2` [Example 295, (R)-6-(3-cyanopyrrolo[1,2-b]pyridazin-7-yl)-N-(2-fluoro-3-hydroxy-3-methyl-butyl)-4-((4-(2,2,2-trifluoro-acetamido)bicyclo[2.2.2]octan-1-yl)amino) nicotinamide], the midpoint of inhibition in test [1], the IC50, lay at 1 nM. For the same compound, in test [2], the EC50 was 38 nM.

`CC(C)(C)C(=O)N[C@H]1CC[C@H](Nc2cc(-c3ccc4cc(C#N)cnn34)ncc2C(=O)NC[C@@H](F)C(C)(C)O)CC1` [Example 296, 6-(3-cyanopyrrolo[1,2-b]pyridazin-7-yl)-N-((R)-2-fluoro-3-hydroxy-3-methylbutyl)-4-(((1r,4R)-4-pivalamidocyclohexyl)amino)nicotinamide] returned a 50% inhibitory concentration (IC50) in test [1] of 3 nM. Moreover, the EC50 in test [2] amounted to 391 nM.

Turning to `CC(C)(O)[C@H](F)CNC(=O)c1cnc(-c2ccc3cc(C#N)cnn23)cc1N[C@H]1CC[C@H](NC(=O)C2CC2)CC1` [Example 297, 6-(3-cyanopyrrolo[1,2-b]pyridazin-7-yl)-4-(((1r,4R)-4-(cyclopropanecarbox-amido)cyclohexyl)amino)-N-((R)-2-fluoro-3-hydroxy-3-methylbutyl) nicotinamide], the midpoint of inhibition in test [1], the IC50, lay at 1 nM. Moreover, the EC50 in test [2] came out at 80 nM.

In test [1], `CC(C)C(=O)N[C@H]1CC[C@H](Nc2cc(-c3ccc4cc(C#N)cnn34)ncc2C(=O)NC[C@@H](F)C(C)(C)O)CC1` [Example 298, 6-(3-cyanopyrrolo[1,2-b]pyridazin-7-yl)-N-((R)-2-fluoro-3-hydroxy-3-methylbutyl)-4-(((1r,4R)-4-isobutyramidocyclohexyl)amino)nicotinamide] displayed an IC50 of 2 nM. In addition, the EC50 in test [2] was found to be 214 nM.

Consider `CCC(=O)N[C@H]1CC[C@H](Nc2cc(-c3ccc4cc(C#N)cnn34)ncc2C(=O)NC[C@@H](F)C(C)(C)O)CC1` [Example 299, 6-(3-cyanopyrrolo[1,2-b]pyridazin-7-yl)-N-((R)-2-fluoro-3-hydroxy-3-methyl-butyl)-4-(((1r,4R)-4-propionamidocyclohexyl)amino)nicotinamide], for which the midpoint of inhibition in test [1], the IC50, lay at 1 nM. Moreover, in test [2], the EC50 amounted to 128 nM.

Turning to `COC(=O)NC1CCC(NC(=O)c2cnc(-c3ccc4cc(C#N)cnn34)cc2N[C@H]2CC[C@H](NC(=O)OC)CC2)CC1` (stereo partly drawn) [Example 300, methyl ((1R,4r)-4-(6-(3-cyanopyrrolo[1,2-b]pyridazin-7-yl)-4-(((1r,4R)-4-((methoxycarbonyl)amino)cyclohexyl)amino)nicotinamido)cyclohexyl) carbamate], the midpoint of inhibition in test [1], the IC50, lay at 1 nM. The concentration giving a half-maximal response (EC50) in test [2] amounted to 75 nM.

As to `CC(=O)NC1CCC(NC(=O)c2cnc(-c3ccc4cc(C#N)cnn34)cc2N[C@H]2CC[C@H](NC(C)=O)CC2)CC1` (stereo partly drawn) [Example 301, N-((1s,4S)-4-acetamidocyclohexyl)-4-(((1r,4R)-4-acetamidocyclohexyl)amino)-6-(3-cyanopyrrolo[1,2-b]pyridazin-7-yl)nicotinamide], the IC50 in test [1] amounted to 2 nM. In test [2], the 50% effective concentration (EC50) was 1410 nM.

Compound `CC(C)(O)[C@H](F)CNC(=O)c1cnc(-c2ccc3cc(C#N)cnn23)cc1NC1CC1CO` (stereo partly drawn) [Example 303, 6-(3-cyanopyrrolo[1,2-b]pyridazin-7-yl)-N-((R)-2-fluoro-3-hydroxy-3-methylbutyl)-4-((2-(hydroxymethyl)cyclopropyl)amino)nicotinamide] showed an IC50 in test [1] of less than 1 nM. Besides, in test [2], the EC50 is 26 nM.

In turn, `CC(C)(C)OC(=O)NC12CCC(Nc3cc(-c4ccc5cc(C#N)cnn45)ncc3C(=O)NC[C@@H](F)C(C)(C)O)(CC1)CC2` [Example 304, (R)-tert-butyl (4-((2-(3-cyanopyrrolo[1,2-b]pyridazin-7-yl)-5-((2-fluoro-3-hydroxy-3-methylbutyl)carbamoyl)pyridin-4yl)amino)bicyclo[2.2.2]octan-1-yl)carbamate] had a half-inhibitory concentration (IC50) in test [1] of 4 nM. Moreover, in test [2], the concentration for a half-maximal effect (EC50) worked out at 677 nM.

Turning to `CC(C)(C)OC(=O)N[C@H]1CC[C@H](Nc2cc(-c3ccc4cc(C#N)cnn34)ncc2C(=O)NC[C@@H](F)C(C)(C)O)CC1` [Example 305, tert-butyl ((1R,4r)-4-((2-(3-cyanopyrrolo[1,2-b]pyridazin-7-yl-5-(((R)-2-fluoro-3-hydroxy-3-methylbutyl)carbamoyl)pyridin-4-yl)amino)cyclohexyl) carbamate], in test [1], the IC50 was found to be 1 nM. Also, in test [2], the EC50 is 337 nM.

Regarding `CC(=O)N[C@@H]1CC[C@@H](Nc2cc(-c3ccc4cc(C#N)cnn34)ncc2C(=O)NC[C@@H](F)C(C)(C)O)C1` [Example 306, 4-(((1R,3R)-3-acetamidocyclopentyl)amino)-6-(3-cyano-pyrrolo[1,2-b]pyridazin-7-yl)-N-((R)-2-fluoro-3-hydroxy-3-methylbutyl) nicotinamide], the IC50 in test [1] is 3 nM. For the same compound, the EC50 in test [2] came out at 453 nM.

In test [1], `CC(=O)N[C@H]1CC[C@@H](Nc2cc(-c3ccc4cc(C#N)cnn34)ncc2C(=O)NC[C@@H](F)C(C)(C)O)C1` [Example 307, 4-(((1R,3S)-3-acetamidocyclopentyl)amino)-6-(3-cyano-pyrrolo[1,2-b]pyridazin-7-yl)-N-((R)-2-fluoro-3-hydroxy-3-methylbutyl) nicotinamide] had an IC50 of 2 nM. Besides, in test [2], the EC50 came out at 320 nM.

Consider `CC(C)(O)[C@H](F)CNC(=O)c1cnc(-c2ccc3cc(C#N)cnn23)cc1N[C@@H]1CC[C@@H](N)C1` [Example 308, 4-(((1R,3R)-3-aminocyclopentyl)amino)-6-(3-cyano-pyrrolo[1,2-b]pyridazin-7-yl)-N-((R)-2-fluoro-3-hydroxy-3-methylbutyl) nicotinamide], for which the IC50 in test [1] was less than 1 nM. In test [2], the concentration for a half-maximal effect (EC50) worked out at 46 nM.

Take `CC(C)(O)[C@H](F)CNC(=O)c1cnc(-c2ccc3cc(C#N)cnn23)cc1N[C@@H]1CC[C@H](N)C1` [Example 309, 4-(((1R,3S)-3-aminocyclopentyl)amino)-6-(3-cyanopyrrolo[1,2-b]pyridazin-7-yl)-N-((R)-2-fluoro-3-hydroxy-3-methylbutyl)nicotinamide]: half-maximal inhibition in test [1] (IC50) required 2 nM. The half-maximal effective concentration (EC50) in test [2] was found to be 623 nM.

In test [1], `CC(C)(O)[C@H](F)CNC(=O)c1cnc(-c2ccc3cc(C#N)cnn23)cc1N[C@H]1CC[C@@H](N)C1` [Example 310, 4-(((1S,3R)-3-aminocyclopentyl)amino)-6-(3-cyanopyrrolo[1,2-b]pyridazin-7-yl)-N-((R)-2-fluoro-3-hydroxy-3-methylbutyl)nicotinamide] displayed an IC50 of 2 nM. Besides, the EC50 in test [2] came to 362 nM.

In turn, `COC(=O)NC12CCC(Nc3cc(-c4ccc5cc(C#N)cnn45)ncc3C(=O)NC[C@@H](F)C(C)(C)O)(CC1)CC2` [Example 311, (R)-methyl (4-((2-(3-cyano-pyrrolo[1,2-b]pyridazin-7-yl)-5-((2-fluoro-3-hydroxy-3-methylbutyl)carbamoyl)pyridin-4-yl)amino)bicyclo[2.2.2]octan-1-yl)carbamate] yielded an IC50 in test [1] of less than 1 nM. Further, the EC50 in test [2] is 15 nM.

`CC(=O)N[C@@H]1CC[C@H](Nc2cc(-c3ccc4cc(C#N)cnn34)ncc2C(=O)NC[C@@H](F)C(C)(C)O)C1` [Example 312, 4-(((1S,3R)-3-acetamidocyclopentyl)amino)-6-(3-cyano-pyrrolo[1,2-b]pyridazin-7-yl)-N-((R)-2-fluoro-3-hydroxy-3-methylbutyl) nicotinamide] registered an IC50 in test [1] of 2 nM. Further, in test [2], the EC50 was determined as 198 nM.

In test [1], `CC(C)(O)[C@H](F)CNC(=O)c1cnc(-c2ccc3cc(C#N)cnn23)cc1N[C@H]1CC[C@H](NC(=O)C(F)(F)F)CC1` [Example 313, 6-(3-cyanopyrrolo[1,2-b]pyridazin-7-yl)-N-((R)-2-fluoro-3-hydroxy-3-methylbutyl)-4-(((1r,4R)-4-(2,2,2-trifluoroacetamido)cyclohexyl)amino) nicotinamide] yielded an IC50 of 1 nM. Besides, in test [2], the concentration for a half-maximal effect (EC50) was found to be 37 nM.

Take `COC(=O)N[C@H]1CC[C@H](Nc2cc(-c3ccc4cc(C#N)cnn34)ncc2C(=O)NC[C@@H](F)C(C)(C)O)CC1` [Example 314, methyl ((1R,4r)-4-((2-(3-cyanopyrrolo[1,2-b]pyridazin-7-yl)-5-(((R)-2-fluoro-3-hydroxy-3-methylbutyl)carbamoyl)pyridin-4-yl)amino)cyclo-hexyl)carbamate]: the IC50 in test [1] is less than 1 nM. Moreover, the concentration for a half-maximal effect (EC50) in test [2] is 20 nM.
